Assay results taken from PubChem BioAssay (NCI).
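Where inhibition never reached the appropriate level, the endpoint shown equals the highest concentration tested. Otherwise, values were interpolated linearly from a five-concentration, 48-hour dose response in 96-well plates. Here, GI50 denotes the concentration required for 50% inhibition of growth. The concentration for full growth arrest is given as TGI.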

Assays:
Test in all cases: growth of human tumour cells (NCI), 48 h
786-0 renal = test system: 786-0 renal
A498 renal = test system: A498 renal
A549 NSCLC = test system: A549 NSCLC
ACHN renal = test system: ACHN renal
BT-549 breast = test system: BT-549 breast
CAKI-1 renal = test system: CAKI-1 renal
CCRF-CEM leukemia = test system: CCRF-CEM leukemia
COLO 205 colon = test system: COLO 205 colon
DU-145 prostate = test system: DU-145 prostate
EKVX NSCLC = test system: EKVX NSCLC
HCC-2998 colon = test system: HCC-2998 colon
HCT-116 colon = test system: HCT-116 colon
HCT-15 colon = test system: HCT-15 colon
HL-60(TB) leukemia = test system: HL-60(TB) leukemia
HOP-62 NSCLC = test system: HOP-62 NSCLC
HOP-92 NSCLC = test system: HOP-92 NSCLC
HS 578T breast = test system: HS 578T breast
HT29 colon = test system: HT29 colon
IGROV1 ovarian = test system: IGROV1 ovarian
K-562 leukemia = test system: K-562 leukemia
KM12 colon = test system: KM12 colon
LOX IMVI melanoma = test system: LOX IMVI melanoma
M14 melanoma = test system: M14 melanoma
MALME-3M melanoma = test system: MALME-3M melanoma
MCF7 breast = test system: MCF7 breast
MDA-MB-231 breast = test system: MDA-MB-231 breast
MDA-MB-435 = test system: MDA-MB-435
MOLT-4 leukemia = test system: MOLT-4 leukemia
NCI-H226 lung = test system: NCI-H226 lung
NCI-H23 lung = test system: NCI-H23 lung
NCI-H460 lung = test system: NCI-H460 lung
NCI-H522 lung = test system: NCI-H522 lung
NCI/ADR-RES ovarian = test system: NCI/ADR-RES ovarian
OVCAR-3 ovarian = test system: OVCAR-3 ovarian
OVCAR-4 ovarian = test system: OVCAR-4 ovarian
OVCAR-5 ovarian = test system: OVCAR-5 ovarian
OVCAR-8 ovarian = test system: OVCAR-8 ovarian
PC-3 prostate = test system: PC-3 prostate
RPMI-8226 leukemia = test system: RPMI-8226 leukemia
RXF 393 renal = test system: RXF 393 renal
SF-268 CNS = test system: SF-268 CNS
SF-295 CNS = test system: SF-295 CNS
SF-539 CNS = test system: SF-539 CNS
SK-MEL-2 melanoma = test system: SK-MEL-2 melanoma
SK-MEL-28 melanoma = test system: SK-MEL-28 melanoma
SK-MEL-5 melanoma = test system: SK-MEL-5 melanoma
SK-OV-3 ovarian = test system: SK-OV-3 ovarian
SN12C renal = test system: SN12C renal
SNB-19 CNS = test system: SNB-19 CNS
SNB-75 CNS = test system: SNB-75 CNS
SR leukemia = test system: SR leukemia
SW-620 colon = test system: SW-620 colon
T-47D breast = test system: T-47D breast
TK-10 renal = test system: TK-10 renal
U251 CNS = test system: U251 CNS
UACC-257 melanoma = test system: UACC-257 melanoma
UACC-62 melanoma = test system: UACC-62 melanoma
UO-31 renal = test system: UO-31 renal

Q: Which results are given for `O=C(O[C@H]1CN[C@H](C#Cc2cc3ncnc(Nc4ccc(OCc5cccc(F)c5)c(Cl)c4)c3s2)C1)N1CCOCC1`?
A: GI50 (786-0 renal): 4.68 µM; TGI (786-0 renal): 9.66 µM; GI50 (A498 renal): 1.76 µM; TGI (A498 renal): 8.21 µM; GI50 (A549 NSCLC): 6 µM; TGI (A549 NSCLC): > 25 µM; GI50 (ACHN renal): 4.27 µM; TGI (ACHN renal): > 25 µM; GI50 (BT-549 breast): 4.28 µM; TGI (BT-549 breast): 8.69 µM; GI50 (CAKI-1 renal): 3.17 µM; TGI (CAKI-1 renal): > 25 µM; GI50 (CCRF-CEM leukemia): 2.2 µM; TGI (CCRF-CEM leukemia): > 22 µM; GI50 (COLO 205 colon): 5.32 µM; TGI (COLO 205 colon): 11.1 µM; GI50 (DU-145 prostate): 5.96 µM; TGI (DU-145 prostate): > 25 µM; GI50 (EKVX NSCLC): 0.6 µM; TGI (EKVX NSCLC): 24.2 µM; GI50 (HCC-2998 colon): 5.01 µM; TGI (HCC-2998 colon): 12.6 µM; GI50 (HCT-116 colon): 7.99 µM; TGI (HCT-116 colon): > 25 µM; GI50 (HCT-15 colon): 8.09 µM; TGI (HCT-15 colon): > 25 µM; GI50 (HL-60(TB) leukemia): 6.11 µM; TGI (HL-60(TB) leukemia): 15.1 µM; GI50 (HOP-62 NSCLC): > 13 µM; TGI (HOP-62 NSCLC): > 25 µM; GI50 (HOP-92 NSCLC): 1.45 µM; TGI (HOP-92 NSCLC): 9.96 µM; GI50 (HS 578T breast): 7.23 µM; TGI (HS 578T breast): > 25 µM; GI50 (HT29 colon): 5.7 µM; TGI (HT29 colon): 11.4 µM; GI50 (IGROV1 ovarian): 2.69 µM; TGI (IGROV1 ovarian): > 25 µM; GI50 (K-562 leukemia): 11.1 µM; TGI (K-562 leukemia): > 25 µM; GI50 (KM12 colon): 5.07 µM; TGI (KM12 colon): 11.2 µM; GI50 (LOX IMVI melanoma): 7.72 µM; TGI (LOX IMVI melanoma): > 25 µM; GI50 (M14 melanoma): 12.6 µM; TGI (M14 melanoma): > 25 µM; GI50 (MALME-3M melanoma): 4.95 µM; TGI (MALME-3M melanoma): 10.2 µM; GI50 (MCF7 breast): 8.57 µM; TGI (MCF7 breast): > 25 µM; GI50 (MDA-MB-231 breast): 5.09 µM; TGI (MDA-MB-231 breast): 14.5 µM; GI50 (MDA-MB-435): 9.85 µM; TGI (MDA-MB-435): > 25 µM; GI50 (MOLT-4 leukemia): 6 µM; TGI (MOLT-4 leukemia): 23.2 µM; GI50 (NCI-H226 lung): 5.32 µM; TGI (NCI-H226 lung): 12 µM; GI50 (NCI-H23 lung): 9.7 µM; TGI (NCI-H23 lung): > 25 µM; GI50 (NCI-H460 lung): 6.4 µM; TGI (NCI-H460 lung): > 25 µM; GI50 (NCI-H522 lung): 1.41 µM; TGI (NCI-H522 lung): 8.12 µM; GI50 (NCI/ADR-RES ovarian): 6.3 µM; TGI (NCI/ADR-RES ovarian): > 25 µM; GI50 (OVCAR-3 ovarian): 4.12 µM; TGI (OVCAR-3 ovarian): 11.1 µM; GI50 (OVCAR-4 ovarian): 10.3 µM; TGI (OVCAR-4 ovarian): > 25 µM; GI50 (OVCAR-5 ovarian): 10.5 µM; TGI (OVCAR-5 ovarian): > 25 µM; GI50 (OVCAR-8 ovarian): 7.35 µM; TGI (OVCAR-8 ovarian): > 25 µM; GI50 (PC-3 prostate): 4.93 µM; TGI (PC-3 prostate): > 25 µM; GI50 (RPMI-8226 leukemia): 4.48 µM; TGI (RPMI-8226 leukemia): 17.3 µM; GI50 (RXF 393 renal): 5.85 µM; TGI (RXF 393 renal): > 16.6 µM; GI50 (SF-268 CNS): 5.81 µM; TGI (SF-268 CNS): > 25 µM; GI50 (SF-295 CNS): 9 µM; TGI (SF-295 CNS): > 25 µM; GI50 (SF-539 CNS): 5.09 µM; TGI (SF-539 CNS): 12 µM; GI50 (SK-MEL-2 melanoma): 7.4 µM; TGI (SK-MEL-2 melanoma): 18.7 µM; GI50 (SK-MEL-28 melanoma): 12.4 µM; TGI (SK-MEL-28 melanoma): > 25 µM; GI50 (SK-MEL-5 melanoma): 8.55 µM; TGI (SK-MEL-5 melanoma): > 25 µM; GI50 (SK-OV-3 ovarian): 0.0356 µM; TGI (SK-OV-3 ovarian): > 25 µM; GI50 (SN12C renal): 5.66 µM; TGI (SN12C renal): > 25 µM; GI50 (SNB-19 CNS): > 25 µM; TGI (SNB-19 CNS): > 25 µM; GI50 (SNB-75 CNS): 7.73 µM; TGI (SNB-75 CNS): > 25 µM; GI50 (SR leukemia): 8.01 µM; TGI (SR leukemia): > 23.7 µM; GI50 (SW-620 colon): 12.2 µM; TGI (SW-620 colon): > 25 µM; GI50 (T-47D breast): 1.55 µM; TGI (T-47D breast): > 25 µM; GI50 (TK-10 renal): 0.17 µM; TGI (TK-10 renal): 8.41 µM; GI50 (U251 CNS): 8.7 µM; TGI (U251 CNS): > 25 µM; GI50 (UACC-257 melanoma): > 19.1 µM; TGI (UACC-257 melanoma): > 25 µM; GI50 (UACC-62 melanoma): 13.4 µM; TGI (UACC-62 melanoma): > 25 µM; GI50 (UO-31 renal): 4.41 µM; TGI (UO-31 renal): > 15.8 µM
